Measured values published in the NIST ThermoML archive (doi:10.1021/je4002009).

Test: mn = molality of the nth substance listed, in mol/kg
Settings: 101 kPa, Liquid; for viscosity: Capillary tube (Ostwald / Ubbelohde) method

CN1CCCC1=O.Cc1ccc(S(=O)(=O)O)cc1 [1-methyl-2-pyrrolidinone p-toluenesulfonate] + O
Settings | mass density, 298.15 K [kg/m3] | mass density, 303.15 K [kg/m3] | mass density, 308.15 K [kg/m3] | viscosity, 298.15 K [mPa·s] | viscosity, 303.15 K [mPa·s] | viscosity, 308.15 K [mPa·s]
m1 = 0.0499 | 999.98 | 998.53 | 996.06 | 0.9405 | 0.8355 | 0.7579
m1 = 0.1012 | 1002.71 | 1000.47 | 998.66 | 0.9707 | 0.8613 | 0.7776
m1 = 0.1588 | 1005.8 | 1004.01 | 1002.3 | 0.9996 | 0.8905 | 0.8002
m1 = 0.1983 | 1007.95 | 1006.37 | 1004.65 | 1.021 | 0.9097 | 0.8164
m1 = 0.2691 | 1011.73 | 1010.16 | 1008.34 | 1.059 | 0.9445 | 0.8406
m1 = 0.3004 | 1013.31 | 1011.73 | 1009.85 | 1.077 | 0.9602 | 0.8511
m1 = 0.3421 | 1015.42 | 1013.71 | 1011.83 | 1.1 | 0.9826 | 0.8691
m1 = 0.398 | 1018.29 | 1016.41 | 1014.42 | 1.13 | 1.007 | 0.892
m1 = 0.4495 | 1020.8 | 1018.89 | 1016.77 | 1.155 | 1.03 | 0.9131
m1 = 0.5139 | 1023.87 | 1021.88 | 1019.63 | 1.191 | 1.058 | 0.9369
m1 = 0.6053 | 1028.17 | 1026.17 | 1023.9 | 1.241 | 1.099 | 0.9752
m1 = 0.6615 | 1030.76 | 1028.65 | 1026.41 | 1.272 | 1.127 | 0.9976
m1 = 0.7504 | 1034.66 | 1032.58 | 1030.21 | 1.319 | 1.169 | 1.036
m1 = 0.7605 | 1035.06 | 1033 | 1030.65 | 1.324 | 1.173 | 1.04
m1 = 0.8335 | 1038.2 | 1036.01 | 1033.59 | 1.366 | 1.207 | 1.072
m1 = 0.9023 | 1041.05 | 1038.67 | 1036.34 | 1.411 | 1.244 | 1.106
m1 = 1.007 | 1045.23 | 1042.61 | 1040.36 | 1.477 | 1.299 | 1.161
m1 = 1.201 | 1052.61 | 1050.61 | 1048.17 | 1.61 | 1.409 | 1.266

CN1CCCC1=O.O=S(=O)(O)c1ccccc1 [1-methyl-2-pyrrolidinone benzenesulfonate] + O
Settings | mass density, 298.15 K [kg/m3] | mass density, 303.15 K [kg/m3] | mass density, 308.15 K [kg/m3] | viscosity, 298.15 K [mPa·s] | viscosity, 303.15 K [mPa·s] | viscosity, 308.15 K [mPa·s]
m1 = 0.0521 | 1000.25 | 998.54 | 996.69 | 0.9266 | 0.8213 | 0.7506
m1 = 0.1042 | 1003.16 | 1001.68 | 999.93 | 0.9506 | 0.845 | 0.7706
m1 = 0.1369 | 1004.9 | 1003.46 | 1001.57 | 0.9685 | 0.8602 | 0.7809
m1 = 0.2057 | 1008.79 | 1007.07 | 1004.83 | 1.003 | 0.8912 | 0.8063
m1 = 0.2512 | 1011.09 | 1009.23 | 1006.69 | 1.028 | 0.9109 | 0.8208
m1 = 0.2984 | 1013.59 | 1011.55 | 1008.84 | 1.055 | 0.9313 | 0.8393
m1 = 0.3556 | 1016.55 | 1014.41 | 1011.59 | 1.083 | 0.9567 | 0.8611
m1 = 0.4028 | 1018.9 | 1016.7 | 1013.74 | 1.107 | 0.9774 | 0.8786
m1 = 0.4537 | 1021.44 | 1019.25 | 1016.36 | 1.133 | 1.002 | 0.8972
m1 = 0.5093 | 1024.16 | 1022.14 | 1019.21 | 1.16 | 1.025 | 0.9174
m1 = 0.6018 | 1028.61 | 1026.63 | 1023.82 | 1.204 | 1.065 | 0.9514
m1 = 0.6492 | 1030.83 | 1028.91 | 1026.28 | 1.226 | 1.085 | 0.9692
m1 = 0.7511 | 1035.5 | 1033.54 | 1030.78 | 1.277 | 1.13 | 1.009
m1 = 0.8129 | 1038.24 | 1036.23 | 1033.29 | 1.309 | 1.158 | 1.034
m1 = 0.871 | 1040.72 | 1038.49 | 1035.54 | 1.341 | 1.185 | 1.059
m1 = 0.9001 | 1042.02 | 1039.67 | 1036.66 | 1.358 | 1.198 | 1.072
m1 = 1.019 | 1047.01 | 1044.27 | 1041.12 | 1.423 | 1.257 | 1.127
m1 = 1.199 | 1054.33 | 1052.06 | 1049.61 | 1.54 | 1.358 | 1.219

Cc1ccc(S(=O)(=O)O)cc1.O=C1CCCN1C1CCCCC1 [1-cyclohexyl-2-pyrrolidinone 4-methylbenzenesulfonate] + O
Settings | mass density, 298.15 K [kg/m3] | mass density, 303.15 K [kg/m3] | mass density, 308.15 K [kg/m3] | viscosity, 298.15 K [mPa·s] | viscosity, 303.15 K [mPa·s] | viscosity, 308.15 K [mPa·s]
m1 = 0.0502 | 1000.25 | 998.76 | 997.02 | 0.9563 | 0.8427 | 0.7524
m1 = 0.1025 | 1003.22 | 1001.6 | 999.85 | 0.9991 | 0.8853 | 0.7957
m1 = 0.1513 | 1005.86 | 1004.3 | 1002.49 | 1.035 | 0.9171 | 0.8304
m1 = 0.1991 | 1008.58 | 1006.95 | 1005.1 | 1.082 | 0.9514 | 0.8636
m1 = 0.2492 | 1011.41 | 1009.76 | 1007.84 | 1.134 | 0.9897 | 0.8957
m1 = 0.3015 | 1014.32 | 1012.57 | 1010.6 | 1.186 | 1.036 | 0.9333
m1 = 0.3524 | 1017.03 | 1015.23 | 1013.12 | 1.24 | 1.08 | 0.9639
m1 = 0.4007 | 1019.46 | 1017.48 | 1015.41 | 1.289 | 1.123 | 0.9982
m1 = 0.4491 | 1021.74 | 1019.79 | 1017.58 | 1.337 | 1.165 | 1.029
m1 = 0.4976 | 1023.93 | 1021.92 | 1019.7 | 1.383 | 1.207 | 1.066
m1 = 0.5503 | 1026.3 | 1024.26 | 1021.89 | 1.435 | 1.254 | 1.104
m1 = 0.6019 | 1028.47 | 1026.37 | 1023.96 | 1.485 | 1.3 | 1.145
m1 = 0.6492 | 1030.43 | 1028.29 | 1025.85 | 1.537 | 1.344 | 1.184
m1 = 0.7521 | 1034.7 | 1032.51 | 1030.01 | 1.648 | 1.44 | 1.272
m1 = 0.8074 | 1037 | 1034.74 | 1032.32 | 1.715 | 1.497 | 1.323
m1 = 0.9012 | 1040.82 | 1038.55 | 1036.16 | 1.829 | 1.596 | 1.412
m1 = 1.002 | 1044.83 | 1042.52 | 1040.19 | 1.966 | 1.7 | 1.506
m1 = 1.199 | 1051.36 | 1048.95 | 1046.4 | 2.233 | 1.907 | 1.688

O=C1CCC[NH+]1C1CCCCC1.O=S(=O)([O-])c1ccccc1 [1-cyclohexyl-2-oxopyrrolidin-1-ium benzenesulfonate] + O
Settings | mass density, 298.15 K [kg/m3] | mass density, 303.15 K [kg/m3] | mass density, 308.15 K [kg/m3] | viscosity, 298.15 K [mPa·s] | viscosity, 303.15 K [mPa·s] | viscosity, 308.15 K [mPa·s]
m1 = 0.0509 | 999.45 | 997.89 | 995.97 | 0.9377 | 0.8235 | 0.7406
m1 = 0.1005 | 1002.85 | 1001.35 | 999.03 | 0.9703 | 0.8645 | 0.7786
m1 = 0.1478 | 1005.4 | 1003.96 | 1001.85 | 1.01 | 0.8892 | 0.8095
m1 = 0.1987 | 1007.93 | 1006.42 | 1004.55 | 1.057 | 0.9268 | 0.8407
m1 = 0.2532 | 1010.59 | 1009.02 | 1007.24 | 1.11 | 0.9692 | 0.8758
m1 = 0.3009 | 1013.05 | 1011.32 | 1009.49 | 1.153 | 1.009 | 0.9088
m1 = 0.3497 | 1015.5 | 1013.84 | 1011.74 | 1.199 | 1.051 | 0.9404
m1 = 0.4013 | 1018.26 | 1016.55 | 1014.3 | 1.247 | 1.097 | 0.9772
m1 = 0.4514 | 1021.07 | 1019.24 | 1016.92 | 1.292 | 1.141 | 1.013
m1 = 0.5008 | 1023.74 | 1022.03 | 1019.52 | 1.337 | 1.181 | 1.046
m1 = 0.5492 | 1026.44 | 1024.55 | 1022.06 | 1.383 | 1.224 | 1.083
m1 = 0.6024 | 1029.39 | 1027.42 | 1024.91 | 1.432 | 1.268 | 1.123
m1 = 0.6506 | 1031.86 | 1029.91 | 1027.47 | 1.479 | 1.309 | 1.163
m1 = 0.7603 | 1037.45 | 1035.1 | 1032.83 | 1.588 | 1.405 | 1.249
m1 = 0.7986 | 1039.18 | 1036.89 | 1034.62 | 1.631 | 1.442 | 1.283
m1 = 0.9023 | 1043.64 | 1041.09 | 1038.92 | 1.736 | 1.535 | 1.373
m1 = 0.9974 | 1047.35 | 1044.52 | 1042.51 | 1.838 | 1.623 | 1.448
m1 = 1.199 | 1054.63 | 1052.23 | 1049.68 | 2.08 | 1.81 | 1.617
